From article PMC5404560, “Towards Selective Mycobacterial ClpP1P2 Inhibitors with Reduced Activity against the Human Proteasome” (Antimicrobial Agents and Chemotherapy, 2017)
“And” between values parts separate entries of the source, which are not always exact repeats. Equal entries are not always repeated. Where two headings read alike, the source gives them in different places.

How the values were obtained:
M. smegmatis ΔprcAB = type: cell-based; details: for M. smegmatis ΔprcAB MIC50: 24 h exposure, OD600, concentration inhibiting 50% of growth; for improvement of bacterial-growth inhibition compared to compound 1: M. smegmatis ΔprcAB
ClpP1P2 = ClpP1P2 (Mycolicibacterium smegmatis, UniProt A0R197+A0R198); assay: ClpP1P2 inhibition whole-cell RFP-SsrA reporter assay; details: 3 h incubation
Sequence of ClpP1P2 (A0R198 4-203): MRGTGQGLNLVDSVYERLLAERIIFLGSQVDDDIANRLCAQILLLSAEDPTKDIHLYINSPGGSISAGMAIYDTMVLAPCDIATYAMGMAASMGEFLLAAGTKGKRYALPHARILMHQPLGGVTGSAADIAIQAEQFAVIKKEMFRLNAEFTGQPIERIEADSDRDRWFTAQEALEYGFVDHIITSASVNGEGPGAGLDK
Sequence of ClpP1P2 (A0R197 17-218): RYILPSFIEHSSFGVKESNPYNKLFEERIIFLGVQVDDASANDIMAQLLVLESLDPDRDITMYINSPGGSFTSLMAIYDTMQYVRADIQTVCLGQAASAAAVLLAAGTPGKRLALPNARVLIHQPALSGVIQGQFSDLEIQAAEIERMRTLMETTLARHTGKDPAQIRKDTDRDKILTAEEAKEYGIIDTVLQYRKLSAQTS

HepG2 proteasome = HepG2 proteasome (Homo sapiens, UniProt P20618+P28074); assay: Cell-based proteasome CT-like peptidase inhibition assay (Proteasome-Glo)
[1] = M. smegmatis ΔprcAB IC50 (μM) for ClpP1P2, whole-cell RFP-SsrA reporter
[2] = read-out: M. smegmatis ΔprcAB IC50 (μM) for ClpP1P2, whole-cell RFP-SsrA reporter
[3] = read-out: IC50 (μM) for HepG2 proteasome, HepG2 cells, 2 h treatment, chymotrypsin-like site

For CC(C)C[C@H](NC(=O)[C@H](C)NC(=O)c1cnccn1)B(O)O [Compound 56, ((R)-3-methyl-1-((S)-2-(pyrazine-2-carboxamido)propanamido)butyl)boronic acid], the “M. smegmatis ΔprcAB MIC50” value (M. smegmatis ΔprcAB) was 76.7 ± 20.5 µM, the IC50 (ClpP1P2; [1]) was 100 µM and the IC50 (HepG2 proteasome) was 0.225 ± 0.025 µM.

In the case of O=C(N[C@@H](Cc1ccccc1)C(=O)N[C@H](B(O)O)C1CCCCC1)c1cnccn1 [Compound 28, ((R)-cyclohexyl((S)-3-phenyl-2-(pyrazine-2-carboxamido)propanamido)methyl)boronic acid], the “M. smegmatis ΔprcAB MIC50” value (M. smegmatis ΔprcAB) is reported as 16 ± 4 µM, the IC50 (ClpP1P2; [1]) is reported as 33 ± 12 µM and the IC50 (HepG2 proteasome) is reported as 0.155 ± 0.025 µM.

For O=C(N[C@@H](Cc1ccccc1)C(=O)N[C@@H](CC1CCCCC1)B(O)O)c1cnccn1 (mixture of isomers) [Compound 29, ((R)-2-cyclohexyl-1-((S)-3-phenyl-2-(pyrazine-2-carboxamido)propanamido)ethyl)boronic acid], the “M. smegmatis ΔprcAB MIC50” value (M. smegmatis ΔprcAB) was 22.5 ± 2.5 µM, the IC50 (ClpP1P2; [1]) was 27 ± 16 µM and the IC50 (HepG2 proteasome) was 0.127 ± 0.002 µM.

In the case of O=C(N[C@@H](Cc1ccccc1)C(=O)N[C@@H](CCc1ccccc1)B(O)O)c1ccc(C(F)(F)F)cc1 [Compound 52, ((R)-3-phenyl-1-((S)-3-phenyl-2-(4-(trifluoromethyl)benzamido)propanamido)propyl)boronic acid], the “M. smegmatis ΔprcAB MIC50” value (M. smegmatis ΔprcAB) is reported as 11 ± 1 µM, the IC50 (ClpP1P2; [1]) is reported as 12 µM and the IC50 (HepG2 proteasome) is reported as 0.1 µM.

In the case of O=C(N[C@@H](Cc1ccccc1)C(=O)N[C@@H](CCC1CCCCC1)B(O)O)c1ccccc1 [Compound 48, ((R)-1-((S)-2-benzamido-3-phenylpropanamido)-3-cyclohexylpropyl)boronic acid], the “M. smegmatis ΔprcAB MIC50” value (M. smegmatis ΔprcAB) is reported as >200 µM, the IC50 (ClpP1P2; [1]) is reported as > 200 µM and the IC50 (HepG2 proteasome) is reported as > 0.5 µM.

For CCCCC[C@H](NC(=O)[C@H](Cc1ccccc1)NC(=O)c1cnccn1)B(O)O [Compound 27, ((R)-1-((S)-3-phenyl-2-(pyrazine-2-carboxamido)propanamido)hexyl)boronic acid], the “M. smegmatis ΔprcAB MIC50” value (M. smegmatis ΔprcAB) was 3 ± 0 µM, the “improvement of bacterial-growth inhibition compared to compound 1” value (M. smegmatis ΔprcAB) was 2 fold and the IC50 (ClpP1P2; [1]) was 4 µM. The IC50 (HepG2 proteasome) was 0.03 µM.

In the case of O=C(N[C@@H](Cc1ccccc1)C(=O)N[C@@H](CCC1CCCCC1)B(O)O)c1ccccc1F [Compound 49, ((R)-3-cyclohexyl-1-((S)-2-(2-fluorobenzamido)-3-phenylpropanamido)propyl)boronic acid], the “M. smegmatis ΔprcAB MIC50” value (M. smegmatis ΔprcAB) is reported as >200 µM, the IC50 (ClpP1P2; [1]) is reported as > 200 µM and the IC50 (HepG2 proteasome) is reported as 0.5 µM.

For CC(C)C[C@H](NC(=O)[C@H](Cc1ccccc1)NC(=O)c1cnc(-c2ccccc2)nc1)B(O)O (mixture of isomers) [Compound 38, ((R)-3-methyl-1-((S)-3-phenyl-2-(2-phenylpyrimidine-5-carboxamido)propanamido)butyl)boronic acid], the “M. smegmatis ΔprcAB MIC50” value (M. smegmatis ΔprcAB) was 2 ± 0 µM, the IC50 (ClpP1P2; [1]) was 1.7 ± 1 µM and the IC50 (HepG2 proteasome) was 0.006 ± 0.001 µM.

O=C(N[C@@H](Cc1ccccc1)C(=O)N[C@@H](CCC1CCCCC1)B(O)O)c1cnccn1 [Compound 30, ((R)-3-cyclohexyl-1-((S)-3-phenyl-2-(pyrazine-2-carboxamido)propanamido)propyl)boronic acid] was tested, and the “M. smegmatis ΔprcAB MIC50” value (M. smegmatis ΔprcAB) was 3.5 µM and 3.5 ± 0.5 µM, the IC50 (ClpP1P2; [1]) was 25 µM and the IC50 (HepG2 proteasome) was 0.5 ± 0.01 µM.

CC(C)C[C@H](NC(=O)[C@H](Cc1ccccc1)NC(=O)c1cccnc1)B(O)O [Compound 36, ((R)-3-methyl-1-((S)-2-(nicotinamido)-3-phenylpropanamido)butyl)boronic acid] was tested, and the “M. smegmatis ΔprcAB MIC50” value (M. smegmatis ΔprcAB) was 6 ± 0 µM, the IC50 (ClpP1P2; [1]) was 4 ± 1.4 µM and the IC50 (HepG2 proteasome) was 0.03 µM.

In the case of CC(C)C[C@H](NC(=O)[C@H](Cc1ccccc1)NC(=O)c1cc(-c2ccccc2)ncn1)B(O)O [Compound 39, ((R)-3-methyl-1-((S)-3-phenyl-2-(6-phenylpyrimidine-4-carboxamido)propanamido)butyl) boronic acid], the “M. smegmatis ΔprcAB MIC50” value (M. smegmatis ΔprcAB) is reported as >200 µM, the IC50 (ClpP1P2; [1]) is reported as > 200 µM and the IC50 (HepG2 proteasome) is reported as 0.006 ± 0.001 µM.

In the case of CC(C)C[C@H](NC(=O)[C@H](Cc1ccccc1)NC(=O)c1ccccc1)B(O)O [Compound 35, ((R)-1-((S)-2-benzamido-3-phenylpropanamido)-3-methylbutyl)boronic acid], the “M. smegmatis ΔprcAB MIC50” value (M. smegmatis ΔprcAB) is reported as 3.5 ± 0.5 µM, the IC50 (ClpP1P2; [1]) is reported as 3.3 ± 0.5 µM and the IC50 (HepG2 proteasome) is reported as 0.006 ± 0.001 µM.

For CC(C)C[C@H](NC(=O)[C@H](Cc1ccccc1)NC(=O)c1ccccn1)B(O)O [Compound 37, ((R)-3-methyl-1-((S)-3-phenyl-2-(picolinamido)propanamido)butyl)boronic acid], the “M. smegmatis ΔprcAB MIC50” value (M. smegmatis ΔprcAB) was 15 ± 0 µM, the IC50 (ClpP1P2; [1]) was 17 ± 5.7 µM and the IC50 (HepG2 proteasome) was 0.006 ± 0.001 µM.

For O=C(N[C@@H](Cc1ccccc1)C(=O)N[C@@H](CCc1ccccc1)B(O)O)c1cnc(-c2ccccc2)nc1 [Compound 55, ((R)-3-phenyl-1-((S)-3-phenyl-2-(2-phenylpyrimidine-5-carboxamido)propanamido)propyl)boronic acid], the “M. smegmatis ΔprcAB MIC50” value (M. smegmatis ΔprcAB) was 5.5 ± 0.5 µM, the IC50 (ClpP1P2; [1]) was 6 µM and the IC50 (HepG2 proteasome) was 0.06 µM.

In the case of CC(=O)N[C@@H](Cc1ccccc1)C(=O)N[C@@H](CC(C)C)B(O)O [Compound 33, ((R)-1-((S)-2-acetamido-3-phenylpropanamido)-3-methylbutyl)boronic acid], the “M. smegmatis ΔprcAB MIC50” value (M. smegmatis ΔprcAB) is reported as 50 ± 0 µM, the IC50 (ClpP1P2; [1]) is reported as 42 µM and 41.7 µM and the IC50 (HepG2 proteasome) is reported as 0.01 ± 0.005 µM.

In the case of CC(C)C[C@H](NC(=O)[C@H](Cc1ccccc1)NC(=O)c1ncc(-c2ccccc2)o1)B(O)O (mixture of isomers) [Compound 42, ((R)-3-methyl-1-((S)-3-phenyl-2-(5-phenyloxazole-2-carboxamido)propanamido)butyl)boronic acid], the “M. smegmatis ΔprcAB MIC50” value (M. smegmatis ΔprcAB) is reported as 8 ± 0 µM, the IC50 (ClpP1P2; [1]) is reported as 6.7 ± 4.1 µM and the IC50 (HepG2 proteasome) is reported as 0.006 ± 0.001 µM.

With CC(C)C[C@H](NC(=O)[C@H](Cc1ccccc1)NC(=O)Cc1ccccc1)B(O)O (mixture of isomers) [Compound 34, ((R)-3-methyl-1-((S)-3-phenyl-2-(2-phenylacetamido)propanamido)butyl)boronic acid] the “M. smegmatis ΔprcAB MIC50” value (M. smegmatis ΔprcAB) was 12 ± 0 µM, the IC50 (ClpP1P2; [1]) was 9 ± 3 µM and the IC50 (HepG2 proteasome) was 0.006 ± 0.001 µM.

With CC(C)C[C@H](NC(=O)CCc1ccccc1)B(O)O [Compound 25, (R)-(3-methyl-1-(3-phenylpropanamido)butyl)boronic acid] the “M. smegmatis ΔprcAB MIC50” value (M. smegmatis ΔprcAB) was >200 µM, the IC50 (ClpP1P2; [1]) was > 200 µM and the IC50 (HepG2 proteasome) was 0.25 µM.

For O=C(N[C@@H](Cc1ccccc1)C(=O)N[C@@H](CCC1CCCCC1)B(O)O)c1cccc2ncsc12 [Compound 47, ((R)-1-((S)-2-(benzo[d]thiazole-7-carboxamido)-3-phenylpropanamido)-3-cyclohexylpropyl)boronic acid], the “M. smegmatis ΔprcAB MIC50” value (M. smegmatis ΔprcAB) was >200 µM, the IC50 (ClpP1P2; [1]) was > 200 µM and the IC50 (HepG2 proteasome) was 0.288 ± 0.088 µM.

CC(=O)N[C@@H](Cc1ccccc1)C(=O)N[C@@H](Cc1ccccc1)B(O)O [Compound 46, ((R)-1-((S)-2-acetamido-3-phenylpropanamido)-2-phenylethyl)boronic acid] was tested, and the “M. smegmatis ΔprcAB MIC50” value (M. smegmatis ΔprcAB) was 50 ± 0 µM, the IC50 (ClpP1P2; [1]) was 50 µM and the IC50 (HepG2 proteasome) was 0.218 ± 0.158 µM.

With CC(C)(C(=O)N[C@@H](Cc1ccccc1)C(=O)N[C@@H](CCC1CCCCC1)B(O)O)n1cccc1 [Compound 50, ((R)-3-cyclohexyl-1-((S)-2-(2-methyl-2-(1H-pyrrol-1-yl)propanamido)-3-phenylpropanamido)propyl)boronic acid] the “M. smegmatis ΔprcAB MIC50” value (M. smegmatis ΔprcAB) was 150 ± 0 µM, the IC50 (ClpP1P2; [1]) was 200 µM and the IC50 (HepG2 proteasome) was > 0.5 µM.

CC(C)C[C@H](NC(=O)[C@H](Cc1ccccc1)NC(=O)N1CCCCC1)B(O)O [Compound 45, ((R)-3-methyl-1-((S)-3-phenyl-2-(piperidine-1-carboxamido)propanamido)butyl)boronic acid] was tested, and the “M. smegmatis ΔprcAB MIC50” value (M. smegmatis ΔprcAB) was 19 ± 5.4 µM, the IC50 (ClpP1P2; [1]) was 22.5 ± 2.5 µM and the IC50 (HepG2 proteasome) was 0.023 ± 0.008 µM.

With O=C(N[C@@H](Cc1ccccc1)C(=O)N[C@@H](CCc1ccccc1)B(O)O)c1ccccc1F [Compound 53, ((R)-1-((S)-2-(2-fluorobenzamido)-3-phenylpropanamido)-3-phenylpropyl)boronic acid] the “M. smegmatis ΔprcAB MIC50” value (M. smegmatis ΔprcAB) was 7 ± 3 µM, the IC50 (ClpP1P2; [1]) was 4.5 µM and the IC50 (HepG2 proteasome) was 0.2 µM.

For “((R)-1-((S)-2-(indolizine-2-carboxamido)-3-phenylpropanamido)-3-methylbutyl)boronic acid [Compound 40]”, the “M. smegmatis ΔprcAB MIC50” value (M. smegmatis ΔprcAB) was 8.3 ± 4.5 µM, the IC50 (ClpP1P2; [2]) was 9 ± 3 µM and the IC50 (HepG2 proteasome; [3]) was 0.023 ± 0.008 µM.

“((R)-1-((S)-2-(indolizine-3-carboxamido)-3-phenylpropanamido)-3-methylbutyl)boronic acid [Compound 41]” was tested, and the “M. smegmatis ΔprcAB MIC50” value (M. smegmatis ΔprcAB) was 15 ± 0 µM, the IC50 (ClpP1P2; [2]) was 11.3 ± 0.9 µM and the IC50 (HepG2 proteasome; [3]) was 0.006 ± 0.001 µM.

For CC(C)C[C@H](NC(=O)[C@H](Cc1ccccc1)NC(=O)c1cccc2ncsc12)B(O)O [Compound 43], the “M. smegmatis ΔprcAB MIC50” value (M. smegmatis ΔprcAB) was 3 ± 0 µM, the “improvement of bacterial-growth inhibition compared to compound 1” value (M. smegmatis ΔprcAB) was 2 fold and the IC50 (ClpP1P2; [1]) was 2.75 ± 1.25 µM. The IC50 (HepG2 proteasome) was 0.006 ± 0.001 µM.

For CC(C)C[C@H](NC(=O)[C@@H](N)Cc1ccccc1)B(O)O [Compound 26, ((R)-1-((S)-2-amino-3-phenylpropanamido)-3-methylbutyl)boronic acid], the “M. smegmatis ΔprcAB MIC50” value (M. smegmatis ΔprcAB) was 100 ± 0 µM, the IC50 (ClpP1P2; [1]) was > 200 µM and the IC50 (HepG2 proteasome) was 0.08 ± 0.01 µM.

CC(C)(C(=O)N[C@@H](Cc1ccccc1)C(=O)N[C@@H](CCc1ccccc1)B(O)O)n1cccc1 [Compound 54, ((R)-1-((S)-2-(2-methyl-2-(1H-pyrrol-1-yl)propanamido)-3-phenylpropanamido)-3-phenylpropyl)boronic acid] was tested, and the “M. smegmatis ΔprcAB MIC50” value (M. smegmatis ΔprcAB) was 30 ± 0 µM, the IC50 (ClpP1P2; [1]) was 25 µM and the IC50 (HepG2 proteasome) was 0.5 µM.

In the case of CC(C)C[C@H](NC(=O)[C@H](Cc1ccccc1)NC(=O)[C@H](Cc1ccccc1)NC(=O)c1cnccn1)B(O)O [Compound 44], the “M. smegmatis ΔprcAB MIC50” value (M. smegmatis ΔprcAB) is reported as 75 ± 0 µM, the IC50 (ClpP1P2; [1]) is reported as > 200 µM and the IC50 (HepG2 proteasome) is reported as 0.006 ± 0.001 µM.
